Literature values as cited in publication PMC8288134, “Synthesis, potential antitumor activity, cell cycle analysis, and multitarget mechanisms of novel hydrazones incorporating a 4-methylsulfonylbenzene scaffold: a molecular docking study” (Journal of Enzyme Inhibition and Medicinal Chemistry, 2021).

What was measured:
NCI-H460 = tested on: NCI-H460; design: method as in https://dtp.cancer.gov/dtpstandard/dwindex/index.jsp; conditions: reference drugs, ref https://dtp.cancer.gov/dtpstandard/dwindex/index.jsp; cited from earlier work
NCI-H522 = tested on: NCI-H522; design: method as in https://dtp.cancer.gov/dtpstandard/dwindex/index.jsp; conditions: reference drugs, ref https://dtp.cancer.gov/dtpstandard/dwindex/index.jsp; cited from earlier work
RXF 393 = tested on: RXF 393; design: method as in https://dtp.cancer.gov/dtpstandard/dwindex/index.jsp; conditions: reference drugs, ref https://dtp.cancer.gov/dtpstandard/dwindex/index.jsp; cited from earlier work
SF-539 = tested on: SF-539; design: method as in https://dtp.cancer.gov/dtpstandard/dwindex/index.jsp; conditions: reference drugs, ref https://dtp.cancer.gov/dtpstandard/dwindex/index.jsp; cited from earlier work
HCC-2998 = tested on: HCC-2998; design: method as in https://dtp.cancer.gov/dtpstandard/dwindex/index.jsp; conditions: reference drugs, ref https://dtp.cancer.gov/dtpstandard/dwindex/index.jsp; cited from earlier work
[1] = tested on: prostate cancer tumour cell lines; conditions: cited from earlier work; for GI50: read-out: GI50 (subpanel average), reference drugs, ref https://dtp.cancer.gov/dtpstandard/dwindex/index.jsp; for TGI (subpanel average): reference drugs, ref https://dtp.cancer.gov/dtpstandard/dwindex/index.jsp
ACHN = tested on: ACHN; design: method as in https://dtp.cancer.gov/dtpstandard/dwindex/index.jsp; conditions: reference drugs, ref https://dtp.cancer.gov/dtpstandard/dwindex/index.jsp; cited from earlier work
HOP-92 = tested on: HOP-92; design: method as in https://dtp.cancer.gov/dtpstandard/dwindex/index.jsp; conditions: reference drugs, ref https://dtp.cancer.gov/dtpstandard/dwindex/index.jsp; cited from earlier work
[2] = tested on: full panel of 59 cancer cell lines; conditions: cited from earlier work; for GI50: read-out: GI50 MG-MID (full panel mean-graph midpoint), reference drugs, ref https://dtp.cancer.gov/dtpstandard/dwindex/index.jsp; for TGI MG-MID (full panel mean-graph midpoint): reference drugs, ref https://dtp.cancer.gov/dtpstandard/dwindex/index.jsp
K-562 = tested on: K-562; design: method as in https://dtp.cancer.gov/dtpstandard/dwindex/index.jsp; conditions: reference drugs, ref https://dtp.cancer.gov/dtpstandard/dwindex/index.jsp; cited from earlier work
OVCAR-5 = tested on: OVCAR-5; design: method as in https://dtp.cancer.gov/dtpstandard/dwindex/index.jsp; conditions: reference drugs, ref https://dtp.cancer.gov/dtpstandard/dwindex/index.jsp; cited from earlier work
[3] = tested on: CNS cancer tumour cell lines; conditions: cited from earlier work; for GI50: read-out: GI50 (subpanel average), reference drugs, ref https://dtp.cancer.gov/dtpstandard/dwindex/index.jsp; for TGI (subpanel average): reference drugs, ref https://dtp.cancer.gov/dtpstandard/dwindex/index.jsp
MCF7 = tested on: MCF7; design: method as in https://dtp.cancer.gov/dtpstandard/dwindex/index.jsp; conditions: reference drugs, ref https://dtp.cancer.gov/dtpstandard/dwindex/index.jsp; cited from earlier work
SR = tested on: SR; design: method as in https://dtp.cancer.gov/dtpstandard/dwindex/index.jsp; conditions: reference drugs, ref https://dtp.cancer.gov/dtpstandard/dwindex/index.jsp; cited from earlier work
SNB-75 = tested on: SNB-75; design: method as in https://dtp.cancer.gov/dtpstandard/dwindex/index.jsp; conditions: reference drugs, ref https://dtp.cancer.gov/dtpstandard/dwindex/index.jsp; cited from earlier work
[4] = read-out: LC50 (subpanel average), reference drugs, ref https://dtp.cancer.gov/dtpstandard/dwindex/index.jsp

Row | SMILES | GI50 (NCI-H460) | GI50 (NCI-H522) | GI50 (RXF 393) | GI50 (SF-539) | GI50 (HCC-2998) | GI50 [1] | TGI (subpanel average) [1] | GI50 (ACHN) | GI50 (HOP-92) | GI50 [2] | TGI MG-MID (full panel mean-graph midpoint) [2] | GI50 (K-562) | GI50 (OVCAR-5) | GI50 [3] | TGI (subpanel average) [3] | GI50 (MCF7) | GI50 (SR) | GI50 (SNB-75) | further results
1 | C#Cc1cccc(Nc2ncnc3cc(OCCOC)c(OCCOC)cc23)c1 [Erlotinib, erlotinib] | 6.31 µM | 1 µM | 3.98 µM | 19.9 µM | 79.4 µM | 20.9 µM | c (Compounds showed values ≥ 100 µM) | 0.199 µM | 3.98 µM | 7.68 µM | 66.3 µM | 31.6 µM | 7.94 µM | 17 µM | 82.11 µM | 100 µM | 10 µM | 12.6 µM | CC50 [1, 4]: > 100 µM; CC50 ([2]; read-out: LC50 MG-MID (full panel mean-graph midpoint), reference drugs, ref https://dtp.cancer.gov/dtpstandard/dwindex/index.jsp): 95.6 µM; CC50 [3, 4]: > 100 µM
2 | COc1cc2ncnc(Nc3ccc(F)c(Cl)c3)c2cc1OCCCN1CCOCC1 [Gefitinib, gefitinib] | 3.16 µM | 1 µM | 3.16 µM | 10 µM | 2.51 µM | 3.29 µM | 31.62 µM | 0.158 µM | 0.316 µM | 2.1 µM | 14.3 µM | 2.51 µM | 3.98 µM | 5.64 µM | 19.62 µM |  | 3.16 µM |  | 
3 | CS(=O)(=O)c1ccc(C(=O)Nc2ccc(Cl)c(-c3ccccn3)c2)c(Cl)c1 [Vismodegib, vismodegib] | 39.8 µM | 25.1 µM | 25.1 µM | 50.1 µM | 39.8 µM |  |  | 39.8 µM | 25.1 µM |  |  | 31.6 µM | 100 µM |  |  | 31.6 µM | 39.8 µM | 25.1 µM | 
